Measurements as given in paper PMC10382516, “Exploring ND-011992, a quinazoline-type inhibitor targeting quinone reductases and quinol oxidases” (Scientific Reports, 2023).

Experiments:
respiratory complex I = respiratory complex I (Escherichia coli, UniProt P0AFC7+P0AFD4+P33599); assay: d-NADH:decyl-ubiquinone oxidoreductase activity of E. coli CBO cytoplasmic membranes; type: biochemical; details: 1 mM KCN
E. coli bo3 oxidase = molecular target: T1, E. coli bo3 oxidase (Escherichia coli, UniProt P0ABI8); assay: Duroquinol:oxygen oxidoreductase activity of isolated bo3 oxidase; type: biochemical
T1 construct: made in house; host or cells: E. coli BL21*Δcyo/pET28b(+)::cyoAhisBCD
Experimental: (§1) E. coli bd-I oxidase was isolated from strain BL21*Δcyo/pET28b( +)::cydAhisBX[13], bd-II oxidase from strain BL21*Δcyo/pET28b( +)::appChisBX[19] and bo3 oxidase from strain BL21*Δcyo/pET28b( +)::cyoAhisBCD (see ‘Methods’). The index “his” indicates the subunit of the enzyme complexes decorated with a His-tag. All strains were grown under oxic conditions in full medium. Cells were harvested and disrupted and cytoplasmic membranes were prepared by differential centrifugation. Membrane proteins were extracted with the detergent lauryl maltose neopentyl glycol (LMNG) and purified to homogeneity by affinity-, anion exchange- and size exclusion-chromatography (see Supplementary Figs. S7–S9).
Because it was claimed that ND-011992 is an inhibitor specific for bd oxidases, we also determined its IC50 towards the isolated bo3 oxidase. As bd oxidases, bo3 oxidase is also a quinol oxidase.
The duroquinol:oxygen oxidoreductase activity of isolated E. coli bd-I, bd-II and bo3 oxidase was determined by monitoring the oxygen consumption with a Clark-type oxygen electrode (Oxyview System, Hansatech Instruments)[20],[33]. All steps were conducted at 30 °C. The reaction chamber was filled with 2 mL 20 mM MOPS, 20 mM NaCl, 0.003% LMNG, pH 7.0. […] The non-enzymatic reaction rate was determined. […] Each data point was measured in triplicates. […]

[1] = test system: NADH oxidase activity of membranes from E. coli strain BL21*Δcyo; assay: NADH oxidase activity of E. coli BL21*Δcyo cytoplasmic membranes (Clark-type oxygen electrode); type: biochemical, Escherichia coli
Experimental: (§2) The inhibitory effect of ND-011992 on the NADH oxidase activity of membranes from E. coli strain BL21*Δcyo was determined. This activity is mainly mediated by the primary NADH dehydrogenases and the terminal oxidases. Strain BL21*Δcyo chromosomally lacks the bo3-oxidase and contains the homologous bd-I and bd-II oxidases as the only terminal oxidases. BL21*Δcyo was grown in full medium, cells were harvested and disrupted and cytoplasmic membranes were prepared by differential centrifugation. With NADH as substrate, electrons might enter the respiratory chain either via complex I or via the alternative, non-energy converting NADH dehydrogenase, NDH-II. […] Second, deamino-NADH (d-NADH) was used as substrate to determine the d-NADH oxidase activity of BL21*Δcyo membranes. d-NADH is a substrate specific for complex I preventing electron entry to the respiratory chain via NDH-II[15],[16]. […] The shift of the IC50 in dependence from the substrate already indicates a high-affinity inhibition of respiratory complex I by ND-011992.
(§3) The (d-)NADH oxidase activity of cytoplasmic membranes was determined with an Clark-type oxygen electrode (Oxyview System, Hansatech Instruments) at 30 °C[19]. […] The non-enzymatic reaction was determined after formation of a stable baseline. […] The protein concentration of membranes were determined by the biuret-method[32]. […]

mitochondrial complex I = mitochondrial complex I (Bos taurus, UniProt P03887+P17694+P42026); type: biochemical, bovine
E. coli bd-II oxidase = molecular target: T2, E. coli bd-II oxidase (Escherichia coli, UniProt P26459); assay: Duroquinol:oxygen oxidoreductase activity of isolated bd-II oxidase; type: biochemical
T2 construct: His-tag; made in house; host or cells: E. coli BL21*Δcyo/pET28b(+)::appChisBX
Experimental: as §1
(§4) The affinity of ND-011992 towards the isolated oxidases was determined by its inhibition of the duroquinol:oxygen oxidoreductase activity measured as decrease of oxygen concentration. […] Thus, there is a significant two-fold difference in binding of ND-011992 towards the two homologous oxidases. Furthermore, the IC50 is higher than that to respiratory complex I, showing that the compound binds better to complex I than to bd-I and to bd-II oxidase. Incorporation of bromine to the compound led to significant changes of inhibition.
(§5) The duroquinol:oxygen oxidoreductase activity of isolated E. coli bd-I, bd-II and bo3 oxidase was determined by monitoring the oxygen consumption with a Clark-type oxygen electrode (Oxyview System, Hansatech Instruments)[20],[33]. All steps were conducted at 30 °C. The reaction chamber was filled with 2 mL 20 mM MOPS, 20 mM NaCl, 0.003% LMNG, pH 7.0. After formation of a stable baseline, 10 μL dithiothreitol (DTT) (1 M) and 5 μL duroquinone in ethanol (100 mM) were added and incubated for 1 min. The non-enzymatic reaction rate was determined. 10 μL enzyme in LMNG (2 mg/mL) were added to start the reaction. The rates were corrected for the non-enzymatic reaction. After 1 min, the reaction was inhibited by adding various amounts (0.01–50 µM) of ND-011992 and 2, respectively. Each data point was measured in triplicates. The standard deviation of each measurement is provided.

[2] = set-up: method as in PMID 33283973; details: as mentioned in the original publication; cited from earlier work
E. coli bd-I oxidase = molecular target: T3, E. coli bd-I oxidase (Escherichia coli, UniProt P0ABJ9); assay: Duroquinol:oxygen oxidoreductase activity of isolated bd-I oxidase; type: biochemical
T3 construct: His-tag; made in house; host or cells: E. coli BL21*Δcyo/pET28b(+)::cydAhisBX
Experimental: as §1, §4, §5

[3] = test system: d-NADH oxidase activity of BL21*Δcyo membranes; assay: d-NADH oxidase activity of E. coli BL21*Δcyo cytoplasmic membranes; type: biochemical, Escherichia coli; details: d-NADH as substrate, 30 °C
Experimental: as §2, §3

T3 sequence (P0ABJ9 whole entry): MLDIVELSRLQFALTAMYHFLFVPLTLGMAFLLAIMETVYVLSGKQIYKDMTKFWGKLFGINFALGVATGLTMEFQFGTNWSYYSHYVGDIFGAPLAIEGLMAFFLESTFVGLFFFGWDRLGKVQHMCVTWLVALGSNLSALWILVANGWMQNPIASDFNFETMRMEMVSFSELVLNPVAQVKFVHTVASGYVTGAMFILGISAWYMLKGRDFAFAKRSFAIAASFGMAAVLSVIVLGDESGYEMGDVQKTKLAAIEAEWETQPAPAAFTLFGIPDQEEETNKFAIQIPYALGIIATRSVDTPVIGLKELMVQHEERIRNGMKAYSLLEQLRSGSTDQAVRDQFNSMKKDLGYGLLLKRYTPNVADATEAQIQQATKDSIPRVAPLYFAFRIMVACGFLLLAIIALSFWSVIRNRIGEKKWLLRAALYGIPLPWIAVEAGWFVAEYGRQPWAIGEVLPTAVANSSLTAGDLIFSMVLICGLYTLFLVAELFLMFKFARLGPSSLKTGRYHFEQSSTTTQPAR
T3 sequence (P56100 whole entry, further chain): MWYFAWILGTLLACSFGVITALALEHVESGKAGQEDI
T3 sequence (P0ABK2 whole entry, further chain): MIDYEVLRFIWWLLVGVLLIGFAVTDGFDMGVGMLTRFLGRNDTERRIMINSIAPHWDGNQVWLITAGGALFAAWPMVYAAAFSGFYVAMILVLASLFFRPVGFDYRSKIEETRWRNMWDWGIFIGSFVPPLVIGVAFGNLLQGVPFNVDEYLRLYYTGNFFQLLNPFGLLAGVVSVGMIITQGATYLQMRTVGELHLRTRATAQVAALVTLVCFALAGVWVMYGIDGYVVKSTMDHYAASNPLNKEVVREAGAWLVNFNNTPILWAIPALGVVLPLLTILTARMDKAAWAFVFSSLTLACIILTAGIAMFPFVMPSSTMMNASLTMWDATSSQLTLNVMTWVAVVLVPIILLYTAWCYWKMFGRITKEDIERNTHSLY
T2 sequence (P26458 whole entry): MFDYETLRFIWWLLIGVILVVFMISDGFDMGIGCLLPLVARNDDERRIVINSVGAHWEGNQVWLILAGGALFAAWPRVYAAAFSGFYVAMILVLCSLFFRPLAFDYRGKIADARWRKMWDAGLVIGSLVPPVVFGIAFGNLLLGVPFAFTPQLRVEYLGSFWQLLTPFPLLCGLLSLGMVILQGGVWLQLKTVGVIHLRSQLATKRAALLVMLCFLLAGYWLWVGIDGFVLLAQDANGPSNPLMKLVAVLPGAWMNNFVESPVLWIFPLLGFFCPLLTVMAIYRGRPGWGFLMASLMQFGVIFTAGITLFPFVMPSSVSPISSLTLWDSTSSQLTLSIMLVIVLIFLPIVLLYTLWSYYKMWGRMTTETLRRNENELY
T2 sequence (P24244 whole entry, further chain): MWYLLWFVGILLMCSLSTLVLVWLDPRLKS
T2 sequence (P26459 whole entry): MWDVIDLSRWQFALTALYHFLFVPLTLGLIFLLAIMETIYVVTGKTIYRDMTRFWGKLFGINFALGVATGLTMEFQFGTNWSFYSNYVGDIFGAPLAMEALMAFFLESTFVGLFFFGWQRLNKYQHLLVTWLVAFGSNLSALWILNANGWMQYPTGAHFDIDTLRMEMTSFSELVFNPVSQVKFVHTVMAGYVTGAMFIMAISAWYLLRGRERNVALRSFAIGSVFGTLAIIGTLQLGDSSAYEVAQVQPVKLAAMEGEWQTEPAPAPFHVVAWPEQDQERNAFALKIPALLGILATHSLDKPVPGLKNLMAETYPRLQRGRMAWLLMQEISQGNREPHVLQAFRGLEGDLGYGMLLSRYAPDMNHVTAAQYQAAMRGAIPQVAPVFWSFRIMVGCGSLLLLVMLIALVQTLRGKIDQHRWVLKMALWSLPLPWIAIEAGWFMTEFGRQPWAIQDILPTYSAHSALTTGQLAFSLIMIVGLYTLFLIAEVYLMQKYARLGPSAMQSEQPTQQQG
T1 sequence (P0ABJ6 whole entry): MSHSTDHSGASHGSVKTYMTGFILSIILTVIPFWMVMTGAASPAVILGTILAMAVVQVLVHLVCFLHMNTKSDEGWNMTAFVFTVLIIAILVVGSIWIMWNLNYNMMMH
T1 sequence (P0ABJ3 whole entry, further chain): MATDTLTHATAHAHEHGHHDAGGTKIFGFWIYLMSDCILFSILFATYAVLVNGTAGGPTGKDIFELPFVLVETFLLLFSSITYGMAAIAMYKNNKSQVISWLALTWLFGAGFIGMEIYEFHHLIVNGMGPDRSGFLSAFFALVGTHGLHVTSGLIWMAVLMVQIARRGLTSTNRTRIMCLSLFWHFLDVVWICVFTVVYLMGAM
T1 sequence (P0ABJ1 25-315, further chain): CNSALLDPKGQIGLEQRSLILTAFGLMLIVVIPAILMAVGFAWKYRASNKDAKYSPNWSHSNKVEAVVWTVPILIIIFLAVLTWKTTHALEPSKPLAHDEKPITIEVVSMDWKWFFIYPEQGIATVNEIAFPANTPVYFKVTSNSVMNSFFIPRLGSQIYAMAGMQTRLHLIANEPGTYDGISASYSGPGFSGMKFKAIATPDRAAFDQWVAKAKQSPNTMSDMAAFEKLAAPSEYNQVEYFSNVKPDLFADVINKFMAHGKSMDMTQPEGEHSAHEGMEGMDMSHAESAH
T1 sequence (P0ABI8 whole entry): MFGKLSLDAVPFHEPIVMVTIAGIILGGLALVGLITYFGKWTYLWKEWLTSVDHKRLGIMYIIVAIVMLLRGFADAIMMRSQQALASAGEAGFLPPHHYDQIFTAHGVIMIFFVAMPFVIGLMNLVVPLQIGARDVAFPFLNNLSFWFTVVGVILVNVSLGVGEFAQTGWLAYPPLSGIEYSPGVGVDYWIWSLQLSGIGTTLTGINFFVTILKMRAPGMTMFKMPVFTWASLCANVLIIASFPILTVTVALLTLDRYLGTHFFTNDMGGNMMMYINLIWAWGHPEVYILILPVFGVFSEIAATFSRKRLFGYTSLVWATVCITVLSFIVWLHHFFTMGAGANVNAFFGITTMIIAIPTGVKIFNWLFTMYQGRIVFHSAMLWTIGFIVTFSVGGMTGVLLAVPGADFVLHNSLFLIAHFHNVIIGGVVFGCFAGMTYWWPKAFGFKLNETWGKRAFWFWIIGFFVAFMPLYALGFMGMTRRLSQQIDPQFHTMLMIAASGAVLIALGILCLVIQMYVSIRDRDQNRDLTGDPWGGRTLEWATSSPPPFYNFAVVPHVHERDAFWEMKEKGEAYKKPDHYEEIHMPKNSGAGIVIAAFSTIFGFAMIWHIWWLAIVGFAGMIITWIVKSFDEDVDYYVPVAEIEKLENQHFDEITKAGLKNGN

| SMILES | IC50 (respiratory complex I) [nM] | IC50 (E. coli bo3 oxidase) [nM] | residual activity (E. coli bo3 oxidase; isolated bo3 oxidase, partial inhibition in titration) | IC50 ([1]; E. coli BL21*Δcyo membranes, NADH as substrate, 30 °C) [nM] | IC50 (mitochondrial complex I) [nM] | residual activity (mitochondrial complex I; bovine heart mitochondrial membranes, NADH oxidase activity) | IC50 (E. coli bd-II oxidase) [nM] | residual activity (E. coli bd-II oxidase; isolated bd-II oxidase, partial inhibition in titration) | pharmacokinetic properties [2] | IC50 (E. coli bd-I oxidase) [nM] | residual activity (E. coli bd-I oxidase; isolated bd-I oxidase, partial inhibition in titration) | IC50 [3] [nM] | effect on the NADH oxidase activity of E. coli membranes ([1]; micromolar concentration range) |
| --- | --- | --- | --- | --- | --- | --- | --- | --- | --- | --- | --- | --- | --- |
| FC(F)(F)c1ccc(Oc2ccc(Nc3ncnc4ccccc34)cc2)cc1 [ND-011992, N-(4-(4-(trifluoromethyl)phenoxy)phenyl)quinazolin-4-amine] | 120 | 2470 | about 20% | 430 | 3270 | about 20% | 1300 | about 20% | poor | 630 | about 20% | 260 |  |
| FC(F)(F)c1ccc(Oc2ccc(Nc3ncnc4ccc(Br)cc34)cc2)cc1 [compound 2, 6-bromo-N-(4-(4-(trifluoromethyl)phenoxy)phenyl)quinazolin-4-amine] |  |  |  |  |  |  | 130 |  |  | 1030 |  |  | no effect |
